Measured values published in patent US20080200338A1, “Heteroaroyl-Substituted Serineamides” (BASF Aktiengesellschaft, priority 2005, published 2008).

| melting point [°C] | Compound |
| --- | --- |
| 136 | C=CC(O)C(NC(=O)c1cn(C)nc1C(F)(F)F)C(=O)NC (racemic) [Compound 3.4, N-(2-Hydroxy-1-methylcarbamoylbut-3-enyl)-1-methyl-3-trifluoromethyl-1H-pyrazole-4-carboxamide] |
| 160 | C=CC(OC(C)=O)C(NC(=O)c1cn(C)nc1C(F)(F)F)C(=O)NC (racemic) [Compound 3.10, 1-{Methylcarbamoyl-[(1-methyl-3-trifluoromethyl-1H-pyrazol-4-carbonyl)amino]methyl}-allyl acetate] |
